According to patent US9993480B2, “mTOR/JAK inhibitor combination therapy” (NOVARTIS PHARMA AG, priority 2011, dated 2018):
Where two headings read alike, the source gives them in different places.

What was measured:
Assay type in all cases: cell-based, human
[1] = test system: K562 cells; assay: Proliferation inhibition assay (WST-1)
Source text: (§1) The HEL, SET2 and K562 human cell lines were purchased from the German Collection of Microorganisms and Cell Cultures (DSMZ, Braunschweig, Germany). Murine BaF/3 and BaF/3-EPOR cells expressing JAK2 wild-type (wt) or JAK2V617F were donated by R. Skoda (Basel, Switzerland).

[2] = test system: SET2 cells; assay: Proliferation inhibition assay (WST-1); settings: SET2, read-out: IC50, proliferation inhibition
Source text: as §1

[3] = test system: HEL cells; assay: Proliferation inhibition assay (WST-1)
Source text: as §1

[4] = test system: JAK2, STAT5, and 4EBP1 in SET2 cells; assay: Western blot of mTOR and JAK/STAT signaling; settings: SET2; 24 h; increasing concentrations
Protocol: Cells were resuspended in RIPA lysis buffer (50 mM pH 7.4 Tris-HCl, 150 mM NaCl, 1% NP-40, 1 mMEDTA) containing a proteinase inhibitor cocktail (Halt Protease Inhibitor Cocktail Kit, PIERCE, Rockford, Ill., US) and subjected to sodium dodecyl sulphate polyacrylamide gel electrophoresis separation and western blotting onto Immunoblot PVDF membrane (BioRad, Hercules, Calif., US), according to standard protocols.
SET2 cells were incubated for 24 h with increasing concentrations of the drugs, and the level of total and phosphorylated JAK2, STAT5, and 4EBP1 was analyzed by western blot. Tubulin was used for loading normalization.

[5] = test system: SET2 cells; assay: Apoptosis by Annexin V flow cytometry; settings: SET2 cells exposed for 48 h
Source text: Results are expressed ad percent viable cells compared to control wells containing vehicle (DMSO) only. The fraction of necrotic cells was identified as the double-positive Annexin V/propidium iodide cells.

IC50 ([1]; Homo sapiens) [µM]	IC50 [1] [µM]	SMILES	IC50 ([2]; Homo sapiens, SET-2, individual drug) [µM]	IC50 ([3]; Homo sapiens) [µM]	phosphorylation of 4E-BP1 [4]	phosphorylation of STAT5 [4]	cell apoptosis (Annexin V-positive cells) [5]	IC50 [2] [µM]	IC50 [3] [µM]
0.031 ± 0.008	–	Cc1[nH]c2ccccc2c1CCNCc1ccc(/C=C/C(=O)NO)cc1 [Panobinostat]	0.007 ± 0.002	0.008 ± 0.003	–	–	–	–	–
–	4910	NC(=O)NO [HuOH, hydroxyurea]	–	–	did not affect	did not affect	induced dose-dependent cell apoptosis	330	410
